Assay results as given in paper PMC7126545 (Bioorganic & Medicinal Chemistry Letters, 2016).

What was measured:
[1] = test system: L1210, CEM and HeLa cells; details: for cytostatic activity (in words): tumour cell lines
[2] = in vitro; details: mouse (L1210), human (CEM, HeLa)
[3] = in vitro

IC50 [2] [µM]	SMILES	times less potent than EAdo ([1]; cytostatic potency relative to EAdo in the three cell lines)	CC50 [3] [µM]	cytostatic activity (in words) [1]
22 to 50	C#C[C@@]1(O)[C@@H](CO)O[C@@H](n2cnc3c(NCc4cccc(Cl)c4)nc(Cl)nc32)[C@@H]1O [Compound 10]	at least 30	34.5	
	C#C[C@@]1(O)[C@@H](CO)O[C@@H](n2cnc3c(N)ncnc32)[C@@H]1O [Compound 1, 3′-C-ethynyladenosine, reference compound]			potent cytostatic activity
	C#C[C@@]1(O)[C@@H](CO)O[C@@H](n2cnc3c(N)nc(Cl)nc32)[C@@H]1O [Compound 7]			did not show any cytostatic activity
